According to ChEMBL document CHEMBL4706653, “Ultra-short lipopeptides against gram-positive bacteria while alleviating antimicrobial resistance” (Eur J Med Chem, 2021):
Values after ≈ are worked out from the molar mass of the structure shown. Active and inactive are the calls of the source. No cut-off for these calls is given here. Residues, ends and D or L forms follow the SMILES beside them. *: point of attachment. Myristoyl = CCCCCCCCCCCCCC(=O)*; Lauroyl = CCCCCCCCCCCC(=O)*

Experiments:
Staphylococcus aureus [1] = assay: Antimicrobial activity against Staphylococcus aureus ATCC 25923 after 18 hrs by broth microdilution method; assay type: functional
Bacillus subtilis = assay: Antimicrobial activity against Bacillus subtilis ATCC 23857 after 18 hrs by broth microdilution method; assay type: functional
Erythrocyte = assay: Hemolytic activity against mouse erythrocytes measured after 1 hr; assay type: ADME, cell-based
[2] = Therapeutic index, ratio of MHC for mouse RBC to geometric mean of peptide MIC for Staphylococcus epidermidis ATCC 12228; assay type: toxicity; conditions: pooled result: one value given for 6 cell lines, strains, targets or settings, read-out: TI
Staphylococcus aureus [3] = assay: Antimicrobial activity against Staphylococcus aureus ATCC 25923 after 18 hrs in presence of NaCl by broth microdilution method; assay type: functional
Staphylococcus aureus [4] = assay: Antimicrobial activity against Staphylococcus aureus ATCC 25923 after 18 hrs in presence of KCl by broth microdilution method; assay type: functional
Staphylococcus aureus [5] = assay: Antimicrobial activity against Staphylococcus aureus ATCC 25923 after 18 hrs in presence of NH4Cl by broth microdilution method; assay type: functional
Staphylococcus aureus [6] = assay: Antimicrobial activity against Staphylococcus aureus ATCC 25923 after 18 hrs in presence of ZnCl2 by broth microdilution method; assay type: functional
Staphylococcus aureus [7] = assay: Antimicrobial activity against Staphylococcus aureus ATCC 25923 after 18 hrs in presence of 2.5% serum by broth microdilution method; assay type: functional
Staphylococcus aureus [8] = assay: Antimicrobial activity against Staphylococcus aureus ATCC 25923 after 18 hrs in presence of 5% serum by broth microdilution method; assay type: functional
Staphylococcus aureus [9] = assay: Ratio of MIC for antimicrobial activity against Staphylococcus aureus ATCC 25923 in presence of 10% serum to MIC for antimicrobial activity against Staphylococcus aureus ATCC 25923 in absence of serum; assay type: functional
Staphylococcus aureus [10] = assay: Antimicrobial activity against ciprofloxacin-treated persistent form of Staphylococcus aureus ATCC 25923 assessed as bacterial killing at 8 times MIC preincubated up to 48 hrs followed by compound washout and subsequent replating on MHB agar by colony counting method; assay type: functional, organism-based; conditions: time hrs <=48
Staphylococcus aureus [11] = assay: Potentiation of ciprofloxacin-induced antimicrobial activity against Staphylococcus aureus ATCC 25923 at 0.5 times MIC after 15 passages by broth microdilution method; assay type: functional, organism-based
Staphylococcus aureus [12] = assay: Antimicrobial activity against ciprofloxacin-resistant Staphylococcus aureus ATCC 25923 after 18 hrs by broth microdilution method; assay type: functional, organism-based
[13] = tested on: Staphylococcus epidermidis; assay: Antimicrobial activity against ciprofloxacin-resistant Staphylococcus epidermidis ATCC 12228 after 18 hrs by broth microdilution method; assay type: functional, organism-based
Staphylococcus aureus [14] = assay: Potentiation of ciprofloxacin-induced antimicrobial activity against ciprofloxacin-resistant Staphylococcus aureus ATCC 25923 assessed as ciprofloxacin MIC at 0.5 times MIC after 15 passages by broth microdilution method; assay type: functional
Staphylococcus aureus [15] = assay: Antimicrobial activity against methicillin-resistant Staphylococcus aureus 75 at 0.5 to 8 uM measured after 18 hrs in presence of ciprofloxacin by checkerboard assay; assay type: functional, organism-based; conditions: dose 0.5-8 µM
Staphylococcus aureus [16] = assay: Antimicrobial activity against ciprofloxacin-resistant Staphylococcus aureus ATCC 25923 at 0.5 to 8 uM measured after 18 hrs in presence of EtBr by checkerboard assay; assay type: functional, organism-based; conditions: dose 0.5-8 µM
Staphylococcus aureus [17] = assay: Antimicrobial activity against Staphylococcus aureus ATCC 25923 after 18 hrs in presence of polymyxin B by checkerboard assay; assay type: functional, organism-based
[18] = tested on: Staphylococcus epidermidis; assay: Antimicrobial activity against Staphylococcus epidermidis ATCC 12228 after 18 hrs in presence of polymyxin B by checkerboard assay; assay type: functional, organism-based
Staphylococcus aureus [19] = assay: Antimicrobial activity against ciprofloxacin-resistant Staphylococcus aureus ATCC 25923 after 18 hrs in presence of polymyxin B by checkerboard assay; assay type: functional, organism-based
Staphylococcus aureus [20] = assay: Potentiation of ciprofloxacin-induced antimicrobial activity against ciprofloxacin-resistant Staphylococcus aureus ATCC 25923 assessed as change in ciprofloxacin MIC at 4 uM after 18 hrs by broth microdilution method relative to ciprofloxacin MIC; assay type: functional
[21] = tested on: Staphylococcus epidermidis; assay: Potentiation of ciprofloxacin-induced antimicrobial activity against ciprofloxacin-resistant Staphylococcus epidermidis ATCC 12228 assessed as change in ciprofloxacin MIC at 4 uM after 18 hrs by broth microdilution method relative to ciprofloxacin MIC; assay type: functional
Staphylococcus aureus [22] = assay: Potentiation of ciprofloxacin-induced antimicrobial activity against ciprofloxacin-resistant Staphylococcus aureus ATCC 25923 assessed as change in ciprofloxacin MIC at 2 uM after 18 hrs by broth microdilution method relative to ciprofloxacin MIC; assay type: functional
[23] = tested on: Staphylococcus epidermidis; assay: Potentiation of ciprofloxacin-induced antimicrobial activity against ciprofloxacin-resistant Staphylococcus epidermidis ATCC 12228 at 1 uM after 18 hrs by broth microdilution method; assay type: functional, organism-based
Staphylococcus aureus [24] = assay: Potentiation of ciprofloxacin-induced antimicrobial activity against methicillin-resistant Staphylococcus aureus 75 at 0.5 uM after 18 hrs by broth microdilution method; assay type: functional, organism-based
Staphylococcus aureus [25] = assay: Potentiation of EtBr-induced antimicrobial activity against ciprofloxacin-resistant Staphylococcus aureus ATCC 25923 at 1 to 2 uM after 18 hrs by broth microdilution method; assay type: functional, organism-based; conditions: dose 1-2 µM
Staphylococcus aureus [26] = assay: Antibiofilm activity against Staphylococcus aureus ATCC 25923 at 0.5 to 8 uM after 24 hrs by crystal violet staining based assay; assay type: functional, organism-based; conditions: dose 0.5-8 µM
Staphylococcus aureus [27] = assay: Antibiofilm activity against ciprofloxacin-resistant Staphylococcus aureus ATCC 25923 at 0.5 to 8 uM after 24 hrs by crystal violet staining based assay; assay type: functional, organism-based; conditions: dose 0.5-8 µM
Staphylococcus aureus [28] = assay: Antibiofilm activity against Staphylococcus aureus ATCC 25923 assessed as biofilm thickness at 8 uM after 24 hrs using LIVE/LEAD (SYTO-9/PI) staining by confocal laser scanning microscopy based 3D image analysis (reference value: 55 micrometer); assay type: functional
Staphylococcus aureus [29] = assay: Antibiofilm activity against Staphylococcus aureus ATCC 25923 preformed biofilm at 32 to 64 uM after 24 hrs by LIVE/DEAD (SYTO-9/PI) staining based confocal laser scanning microscopic analysis; assay type: functional, organism-based; conditions: dose 32-64 µM
Staphylococcus aureus [30] = assay: Antibiofilm activity against Staphylococcus aureus ATCC 25923 preformed biofilm assessed as reduction in preformed biofilm thickness after 24 hrs using LIVE/LEAD (SYTO-9/PI) staining by confocal laser scanning microscopy based 3D image analysis; assay type: functional, organism-based; conditions: dose 32-64 µM
Lipopolysaccharide (LPS) = assay: Binding affinity to LPS (unknown origin) assessed as bacterial killing at 2 times MIC preincubated for 1 hr followed by Staphylococcus aureus ATCC 25923 addition and measured after 2 hrs by colony counting method; conditions: time 3.0 hrs
Cell membrane [31] = assay: Induction of membrane disruption in Staphylococcus aureus ATCC 25923 assessed as PI-positive cells at 2 times MIC measured after 2 hrs by propidium iodide staining based flow cytometry relative to control
Cell membrane [32] = assay: Induction of membrane disruption in Staphylococcus aureus ATCC 25923 assessed as irregular atrophy at 2 to 4 times MIC measured after 2 to 4 hrs by SEM analysis; assay type: subcellular; conditions: time 2-4 hrs
Cell membrane [33] = assay: Induction of membrane disruption in Staphylococcus aureus ATCC 25923 assessed as membrane blebbing at 2 to 4 times MIC measured after 2 to 4 hrs by SEM analysis; assay type: subcellular; conditions: time 2-4 hrs
Cell membrane [34] = assay: Induction of membrane disruption in Staphylococcus aureus ATCC 25923 assessed as increase in cell content leakage at 4 times MIC measured after 2 to 4 hrs by SEM analysis; assay type: subcellular; conditions: time 2-4 hrs
Cell membrane [35] = assay: Induction of membrane disruption in Staphylococcus aureus ATCC 25923 assessed as cell lysis at 4 times MIC measured after 2 to 4 hrs by SEM analysis; assay type: subcellular; conditions: time 2-4 hrs

Row | SMILES | MIC (Staphylococcus aureus [1]) | MIC (Bacillus subtilis) | MHC10 (Erythrocyte) | selectivity ratio [2] | MIC (Staphylococcus aureus [3]) | MIC (Staphylococcus aureus [4]) | MIC (Staphylococcus aureus [5]) | MIC (Staphylococcus aureus [6]) | MIC (Staphylococcus aureus [7]) | MIC (Staphylococcus aureus [8]) | Ratio (Staphylococcus aureus [9]) | Activity (Staphylococcus aureus [10]) | Activity (Staphylococcus aureus [11]) | Activity (Staphylococcus aureus [12]) | Activity [13] | MIC (Staphylococcus aureus [14]) | Activity (Staphylococcus aureus [15]) | Activity (Staphylococcus aureus [16]) | Activity (Staphylococcus aureus [17]) | Activity [18] | other results
1 | CCCCCCCCCCCC(=O)N[C@@H](CCCNC(=N)N)C(=O)N[C@@H](CCCNC(=N)N)C(=O)N[C@@H](Cc1c[nH]c2ccccc12)C(N)=O (Lauroyl-Arg-Arg-Trp-NH2) | 4 µM (≈ 2.79 µg/mL) | 4 µM (≈ 2.79 µg/mL) | 128 µM | 34.9 | 16 µM | 8 µM | 4 µM | 8 µM | 32 µM | 64 µM | 8 | Active | Active | Active | Active | 8 µM | Active | Active | Active | Active | Activity (Staphylococcus aureus [19]): Active; fold change (FC) (Staphylococcus aureus [20]): 2; fold change (FC) [21]: 2; fold change (FC) (Staphylococcus aureus [22]): 2; Activity [23]: inactive; Activity (Staphylococcus aureus [24]): inactive; Activity (Staphylococcus aureus [25]): Active; Activity (Staphylococcus aureus [26]): Active; Activity (Staphylococcus aureus [27]): Active; Activity (Staphylococcus aureus [28]): 20 um; Activity (Staphylococcus aureus [29]): Active; Activity (Staphylococcus aureus [30]): Dose-dependent effect; Activity (Lipopolysaccharide (LPS)): Active; Activity (Cell membrane [31]): 44.3%; Activity (Cell membrane [32]): Active; Activity (Cell membrane [33]): Active; Activity (Cell membrane [34]): Active; Activity (Cell membrane [35]): Active
2 | CCCCCCCCCCCCCC(=O)N[C@@H](CCCNC(=N)N)C(=O)N[C@@H](Cc1c[nH]c2ccccc12)C(=O)N[C@@H](Cc1c[nH]c2ccccc12)C(N)=O (Myristoyl-Arg-Trp-Trp-NH2) | 8 µM (≈ 6.05 µg/mL) | 4 µM (≈ 3.02 µg/mL) | > 256 µM | 56.9 | 8 µM | 8 µM | 4 µM | 8 µM | 8 µM | 16 µM | 2 | Active | Active | Active | Active | 8 µM | Active | Active | Active | Active | Activity (Staphylococcus aureus [19]): Active; fold change (FC) (Staphylococcus aureus [20]): 2; fold change (FC) [21]: 2; fold change (FC) (Staphylococcus aureus [22]): 2; Activity [23]: inactive; Activity (Staphylococcus aureus [24]): inactive; Activity (Staphylococcus aureus [25]): Active; Activity (Staphylococcus aureus [26]): Active; Activity (Staphylococcus aureus [27]): Active; Activity (Staphylococcus aureus [28]): 16 um; Activity (Staphylococcus aureus [29]): Active; Activity (Staphylococcus aureus [30]): Dose-dependent effect; Activity (Lipopolysaccharide (LPS)): Active; Activity (Cell membrane [31]): 74.8%; Activity (Cell membrane [32]): Active; Activity (Cell membrane [33]): Active; Activity (Cell membrane [34]): Active; Activity (Cell membrane [35]): Active
